Source: patent publication US12552753B2, “Methods and compositions for targeting Tregs using CCR8 inhibitors” (Nanjing Immunophage Biomedical Co., Ltd., priority 2020, dated 2026)
Counter-ions that a name gives are not always drawn.

These compounds were tested against CCR8 (Homo sapiens, UniProt P51685) (assay: Tango assay (Tango-CCR8-Gal4-CHO-K1 cells, CCL1-stimulated, ONE-Glo luminescence)). Conditions: Tango Assay IC50, Inhibition of CCR8 Tango cell in vitro.
Chain of CCR8 (P51685 whole entry, the tested form may be a part): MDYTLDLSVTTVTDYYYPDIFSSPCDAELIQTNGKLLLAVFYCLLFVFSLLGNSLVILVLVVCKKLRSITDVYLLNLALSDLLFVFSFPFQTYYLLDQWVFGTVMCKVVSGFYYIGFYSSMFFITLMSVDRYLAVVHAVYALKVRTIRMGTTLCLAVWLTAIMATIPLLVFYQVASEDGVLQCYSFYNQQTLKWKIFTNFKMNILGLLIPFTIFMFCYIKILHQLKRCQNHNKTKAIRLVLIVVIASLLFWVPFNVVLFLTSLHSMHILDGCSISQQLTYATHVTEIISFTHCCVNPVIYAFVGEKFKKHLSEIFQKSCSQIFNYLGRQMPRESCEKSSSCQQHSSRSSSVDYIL
`Cc1ccccc1C(=O)Nc1ccc(S(=O)(=O)NC(C)C2CCCN(C(=O)CNC(=O)OC(C)(C)C)C2)c2ccccc12` (stereo not shown) [Compound 155D, tert-butyl (2-(3-(1-(4-(2-methylbenzamido)naph-thalene-1-sulfonamido)ethyl)piper-idin-1-yl)-2-oxoethyl)carbamate] showed an IC50 of over 10000 nM. In the case of `Cc1ccccc1C(=O)Nc1ccc(S(=O)(=O)NC(C)C2CCCN(C(=O)CN(C)C)C2)c2ccccc12` (stereo not shown) [Compound 159, N-(4-(N-(1-(1-(2-(dimethylamino)acetyl)piperidin-3-yl)ethyl)sulfamoyl)naph-thalen-1-yl)-2-methylbenzamide], the IC50 is reported as over 10000 nM. `Cc1cc(S(=O)(=O)N[C@H](C)C2CCN(C(=O)OC(C)(C)C)CC2)ccc1NC(=O)c1ccccc1C` [Compound 160, (R)-tert-butyl 4-(1-(3-methyl-4-(2-methylbenzamido)phen-ylsulfonamido)ethyl)piper-idine-1-carboxylate] was tested, and the IC50 was over 10000 nM. Compound `Cc1cc(S(=O)(=O)N[C@H](C)C2CCNCC2)ccc1NC(=O)c1ccccc1C` [Compound 161A, (R)-2-methyl-N-(2-methyl-4-(N-(1-(piperidin-4-yl)ethyl)sulfamoyl)phen-yl)benzamide hydrochloride] has an IC50 of 42 nM. Compound `Cc1cc(S(=O)(=O)NC(C)C2CC3CCC2CC3)ccc1NC(=O)c1ccccc1C` (stereo not shown) [Compound 162, N-(4-(N-(1-(bicyclo[2.2.2]octan-2-yl)ethyl)sulfamoyl)-2-methylphenyl)-2-methylbenzamide] has an IC50 of 5 nM. Work on `Cc1ccccc1C(=O)Nc1ccc(S(=O)(=O)NC(C)C2CC3CCC2CC3)c(C)c1` (stereo not shown) [Compound 163, N-(4-(N-(1-(bicyclo[2.2.2]octan-2-yl)ethyl)sulfamoyl)-3-methylphenyl)-2-methylbenzamide] yielded an IC50 of 86 nM. Work on `Cc1ccccc1C(=O)Nc1ccc(S(=O)(=O)N[C@H](C)C2CCN(C(=O)OC(C)(C)C)CC2)cc1Cl` [Compound 164, (R)-tert-butyl 4-(1-(3-chloro-4-(2-methylbenzamido)phen-ylsulfonamido)ethyl)piper-idine-1-carboxylate] yielded an IC50 of over 10000 nM. With `Cc1ccccc1C(=O)Nc1ccc(S(=O)(=O)N[C@H](C)C2CCNCC2)cc1Cl` [Compound 165A, (R)-N-(2-chloro-4-(N-(1-(piperidin-4-yl)ethyl)sulfamoyl)phen-yl)-2-methylbenzamide hydrochloride] the IC50 was 12 nM. With `Cc1cc(S(=O)(=O)N[C@H](C)C2CCNCC2)ccc1NC(=O)c1ccccc1` [Compound 166A, (R)-N-(2-methyl-4-(N-(1-(piperidin-4-yl)ethyl)sulfamoyl)phen-yl)benzamide hydrochloride] the IC50 was 99 nM. Compound `Cc1cc(S(=O)(=O)NC(C)C2CCNCC2)ccc1NC(=O)c1ccccc1C` (stereo not shown) [Compound 167A, 2-methyl-N-(2-methyl-4-(N-(1-(piperidin-4-yl)ethyl)sulfamoyl)phen-yl)benzamide hydrochloride] has an IC50 of 46 nM. With `Cc1cc(S(=O)(=O)N[C@H](C)C2CCN(C(=O)OC(C)(C)C)CC2)c(Cl)cc1NC(=O)c1ccccc1C` [Compound 168, (R)-tert-butyl 4-(1-(2-chloro-5-methyl-4-(2-methylbenzamido)phen-ylsulfonamido)ethyl)pi-peridine-1-carboxylate] the IC50 was 1300 nM. Compound `Cc1cc(S(=O)(=O)N[C@H](C)C2CCNCC2)c(Cl)cc1NC(=O)c1ccccc1C` [Compound 169A, (R)-N-(5-chloro-2-methyl-4-(N-(1-(piperidin-4-yl)ethyl)sulfamoyl)phen-yl)-2-methylbenzamide hydrochloride] has an IC50 of 12 nM. `Cc1cc(S(=O)(=O)NC(C)C2CC3CCC2CC3)c(C)cc1NC(=O)c1ccccc1C` (stereo not shown) [Compound 170, N-(4-(N-(1-(bicyclo[2.2.2]octan-2-yl)ethyl)sulfamoyl)-2,5-dimethylphenyl)-2-methylbenzamide] showed an IC50 of 3.7 nM. `Cc1cc(S(=O)(=O)N[C@H](C)C2CCNCC2)c(C)cc1NC(=O)c1ccccc1C` [Compound 171A, (R)-N-(2,5-dimethyl-4-(N-(1-(piperidin-4-yl)ethyl)sulfamoyl)phen-yl)-2-methylbenzamide hydrochloride] showed an IC50 of 19 nM. `CC(=O)Nc1cc(C)c(S(=O)(=O)N[C@H](C)C2CCNCC2)cc1C` [Compound 172A, (R)-N-(2,5-dimethyl-4-(N-(1-(piperidin-4-yl)ethyl)sulfamoyl)phen-yl)acetamide hydrochloride] showed an IC50 of over 10000 nM. With `COc1cc(S(=O)(=O)NC(C)C2CC3CCC2CC3)c(C)cc1NC(=O)c1ccccc1C` (stereo not shown) [Compound 173, N-(4-(N-(1-(bicyclo[2.2.2]octan-2-yl)ethyl)sulfamoyl)-2-methoxy-5-methylphenyl)-2-methylbenzamide] the IC50 was 22 nM. `Cc1cc(S(=O)(=O)N[C@H](C)C2CCN(C(=O)OC(C)(C)C)CC2)c(F)cc1NC(=O)c1ccccc1C` [Compound 174, (R)-tert-butyl 4-(1-(2-fluoro-5-methyl-4-(2-methylbenzamido)phen-ylsulfonamido)ethyl)pi-peridine-1-carboxylate] showed an IC50 of 914 nM. Compound `Cc1cc(S(=O)(=O)N[C@H](C)C2CCNCC2)c(F)cc1NC(=O)c1ccccc1C` [Compound 175, (R)-N-(5-fluoro-2-methyl-4-(N-(1-(piperidin-4-yl)ethyl)sulfamoyl)phen-yl)-2-methylbenzamide] has an IC50 of 26 nM. In the case of `Cc1ccccc1C(=O)Nc1ccc(S(=O)(=O)N[C@H](C)C2CCN(C(=O)OC(C)(C)C)CC2)c(F)c1C` [Compound 176, (R)-tert-butyl 4-(1-(2-fluoro-3-methyl-4-(2-methylbenzamido)phen-ylsulfonamido)ethyl)pi-perridine-1-carboxylate], the IC50 is reported as 711 nM. For `Cc1ccccc1C(=O)Nc1ccc(S(=O)(=O)N[C@H](C)C2CCNCC2)c(F)c1C` [Compound 177A, (R)-N-(3-fluoro-2-methyl-4-(N-(1-(piperidin-4-yl)ethyl)sulfamoyl)phen-yl)-2-methylbenzamide, hydrochloride], the IC50 was 46 nM. With `Cc1ccccc1C(=O)Nc1ccc(S(=O)(=O)N[C@H](C)C2CCN(C(=O)OC(C)(C)C)CC2)c(Cl)c1C` [Compound 178, (R)-tert-butyl 4-(1-(2-chloro-3-methyl-4-(2-methylbenzmido)phen-ylsulfonamido)ethyl)pi-perridine-1-carboxylate] the IC50 was 378 nM. With `Cc1ccccc1C(=O)Nc1ccc(S(=O)(=O)N[C@H](C)C2CCNCC2)c(Cl)c1C` [Compound 179A, (R)-N-(3-chloro-2-methyl-4-(N-(1-(piperidin-4-yl)eth-yl)sulfamoyl)phen-yl)-2-methylbenzamide, hydrochloride] the IC50 was 158 nM. `Cc1ccccc1C(=O)Nc1c(C)cc(S(=O)(=O)N[C@H](C)C2CCNCC2)cc1Cl` [Compound 180A, (R)-N-(2-chloro-6-methyl-4-(N-(1-(piperidin-4-yl)eth-yl)sulfamoyl)phen-yl)-2-methylbenzamide hydrochloride] showed an IC50 of 2 nM. Compound `Cc1cc(S(=O)(=O)N[C@H](C)C2CCNCC2)cc(C)c1NC(=O)c1ccccc1` [Compound 181, (R)-N-(2,6-dimethyl-4-(N-(1-(piperidin-4-yl)ethyl)sulfa-moyl)phenyl)benza-mide hydrochloride] has an IC50 of over 10000 nM. `Cc1ccccc1C(=O)Nc1ccc(S(=O)(=O)NC(C)C2CC3CCC2CC3)c(C)c1C` (stereo not shown) [Compound 182, N-(4-(N-(1-(bicyclo[2.2.2]octan-2-yl)ethyl)sulfamoyl)-2,3-dimethylphenyl)-2-methylbenzamide] gave an IC50 of 61 nM.
